Reference: paper PMC6270232, “1,2,3-Triazole-Substituted Oleanolic Acid Derivatives: Synthesis and Antiproliferative Activity” (Molecules, 2013)

Legend:
[1] = test system: normal lung fibroblasts (MRC-5); assay: Antiproliferative assay (MTT reduction), MRC-5; format: cell-based, human; design: key to Antiproliferative activity in words, MRC-5: IC50 values > 100 µM were considered inactive; settings: for IC50: Homo sapiens, MRC5, 72 h, MRC-5 normal lung fibroblasts, 3 days treatment, MTT, read-out: IC50 ± SD, MRC-5
Protocol: (§1) All human cell lines used in this work were purchased from the American Type Culture Collection (ATCC, Manasas, VA, USA). […] Promyelocytic leukemia HL-60 cells (CCL-240) were grown in suspension in RPM1 medium containing 1 mM sodium pyruvate and 2.0 g/L sodium bicarbonate. All media were supplemented with 10% heat-inactivated FBS, 100 IU/mL penicillin and 100 µg/mL streptomycin. […] For the antiproliferative assay, adherent cells were plated at a density of 5 × 10^4 cells/mL and HL-60 cells at 30 × 10^4 cells/mL. Cells were seeded in 96-well plates (100 µL/well). One day after seeding, cells were treated with medium containing the compounds at concentrations ranging from 0 up to 100 µM during 3 days. The compounds were dissolved in DMSO (1% final concentration) and complete medium. Untreated cells (medium containing 1% DMSO) were used as 100% viability controls. […] Each concentration was tested in sextuplicate and experiments were repeated 2 times. Cell viability was determined by means of the MTT reduction assay at the end of the incubation with the products.

[2] = test system: gastric epithelial adenocarcinoma (AGS) cells; assay: Antiproliferative assay (MTT reduction), AGS; format: cell-based; settings: Homo sapiens, 72 h, 3 days treatment, read-out: IC50 ± SD, AGS
Protocol: (§2) All human cell lines used in this work were purchased from the American Type Culture Collection (ATCC, Manasas, VA, USA). Normal lung MRC-5 fibroblasts (CCL-171), SK-MES-1 lung cancer cells (HTB-58) and J82 bladder carcinoma cells (HTB-1) were grown as monolayers in minimum essential Eagle medium (MEM) with Earles’s salts, 2 mM L-glutamine and 1.5 g/L sodium bicarbonate. Gastric adenocarcinoma AGS cells (CRL-1739) were grown as monolayers in Ham F-12 medium containing 1 mM L-glutamine and 1.5 g/L sodium bicarbonate. Promyelocytic leukemia HL-60 cells (CCL-240) were grown in suspension in RPM1 medium containing 1 mM sodium pyruvate and 2.0 g/L sodium bicarbonate. All media were supplemented with 10% heat-inactivated FBS, 100 IU/mL penicillin and 100 µg/mL streptomycin. Cells were grown in a humidified incubator with 5% CO2 in air at 37 °C. For the antiproliferative assay, adherent cells were plated at a density of 5 × 10^4 cells/mL and HL-60 cells at 30 × 10^4 cells/mL. Cells were seeded in 96-well plates (100 µL/well). One day after seeding, cells were treated with medium containing the compounds at concentrations ranging from 0 up to 100 µM during 3 days. The compounds were dissolved in DMSO (1% final concentration) and complete medium. Untreated cells (medium containing 1% DMSO) were used as 100% viability controls. […] Each concentration was tested in sextuplicate and experiments were repeated 2 times. Cell viability was determined by means of the MTT reduction assay at the end of the incubation with the products. The results were transformed to percentage of controls and the IC50 values were graphically obtained from the dose-response curves.

[3] = test system: lung cancer (SK-MES-1) cells; assay: Antiproliferative assay (MTT reduction), SK-MES-1; format: cell-based; settings: Homo sapiens, 72 h, SK-MES-1 lung cancer cells, 3 days treatment, read-out: IC50 ± SD, SK-MES-1
Protocol: as §1

[4] = test system: bladder carcinoma (J82) cells; assay: Antiproliferative assay (MTT reduction), J82; format: cell-based; settings: Homo sapiens, 72 h, 3 days treatment, read-out: IC50 ± SD, J82
Protocol: as §2

[5] = test system: promyelocytic leukemia (HL-60) cells; assay: Antiproliferative assay (MTT reduction), HL-60; format: cell-based; settings: Homo sapiens, 72 h, HL-60 promyelocytic leukemia cells, 3 days treatment, read-out: IC50 ± SD, HL-60
Protocol: as §1

[6] = test system: MRC-5, AGS, HL-60, SK-MES-1 and J82 cells; assay: Antiproliferative assay (MTT reduction), all cell lines together; format: cell-based, human; design: key to Antiproliferative activity in words, all cell lines: IC50 values > 100 µM were considered inactive; settings: SK-MES-1, J82 and HL-60; for IC50: Homo sapiens, range over MRC-5, AGS; for Antiproliferative activity in words, all cell lines: MRC-5, AGS, up to 100 µM
Protocol: as §2

| Compound | IC50 [1] | IC50 [2] | IC50 [3] | IC50 [4] | IC50 [5] | IC50 [6] | melting point | Antiproliferative activity in words, all cell lines [6] | Antiproliferative activity in words, MRC-5 ([1]; MRC-5 cells, up to 100 µM) |
| --- | --- | --- | --- | --- | --- | --- | --- | --- | --- |
| C#CCCC(=O)O[C@H]1CC[C@@]2(C)C(CC[C@]3(C)C2CC=C2[C@@H]4CC(C)(C)CC[C@]4(C(=O)O)CC[C@]23C)C1(C)C (stereo partly shown) [Compound 1] | 21.3 ± 0.9 µM | 19.1 ± 1 µM | 22.4 ± 1.9 µM | 23.1 ± 1.6 µM | 19.6 ± 0.1 µM | 19.6 to 23.1 µM | 235 °C | – | – |
| C#CCCC(=O)O[C@H]1CC[C@@]2(C)C(CC[C@]3(C)C2CC=C2[C@@H]4CC(C)(C)CC[C@]4(C(=O)OC)CC[C@]23C)C1(C)C (stereo partly shown) [Compound 2] | > 100 µM | > 100 µM | > 100 µM | > 100 µM | > 100 µM | – | 173 °C | inactive | – |
| C#CCCCC(=O)O[C@H]1CC[C@@]2(C)C(CC[C@]3(C)C2CC=C2[C@@H]4CC(C)(C)CC[C@]4(C(=O)O)CC[C@]23C)C1(C)C (stereo partly shown) [Compound 3] | 14.1 ± 1.2 µM | 22.1 ± 1.5 µM | 23.4 ± 1.8 µM | 56.2 ± 4.3 µM | 22.4 ± 0.1 µM | 14.1 to 56.2 µM | 212 °C | – | – |
| C#CCCCC(=O)O[C@H]1CC[C@@]2(C)C(CC[C@]3(C)C2CC=C2[C@@H]4CC(C)(C)CC[C@]4(C(=O)OC)CC[C@]23C)C1(C)C (stereo partly shown) [Compound 4] | > 100 µM | > 100 µM | > 100 µM | > 100 µM | > 100 µM | – | 176 °C | inactive | – |
| CC1(C)CC[C@]2(C(=O)O)CC[C@]3(C)C(=CCC4[C@@]5(C)CC[C@H](OC(=O)CCc6cn(-c7ccccc7)nn6)C(C)(C)C5CC[C@]43C)[C@@H]2C1 (stereo partly shown) [Compound 5] | > 100 µM | > 100 µM | > 100 µM | > 100 µM | > 100 µM | – | – | – | – |
| COC(=O)[C@]12CCC(C)(C)C[C@H]1C1=CCC3[C@@]4(C)CC[C@H](OC(=O)CCc5cn(-c6ccccc6)nn5)C(C)(C)C4CC[C@@]3(C)[C@]1(C)CC2 (stereo partly shown) [Compound 6] | > 100 µM | > 100 µM | > 100 µM | > 100 µM | > 100 µM | – | – | – | – |
| COc1ccc(-n2cc(CCC(=O)O[C@H]3CC[C@@]4(C)C(CC[C@]5(C)C4CC=C4[C@@H]6CC(C)(C)CC[C@]6(C(=O)O)CC[C@]45C)C3(C)C)nn2)cc1 (stereo partly shown) [Compound 7] | > 100 µM | 95.1 ± 5.8 µM | > 100 µM | > 100 µM | > 100 µM | – | 210 °C | – | – |
| COC(=O)[C@]12CCC(C)(C)C[C@H]1C1=CCC3[C@@]4(C)CC[C@H](OC(=O)CCc5cn(-c6ccc(OC)cc6)nn5)C(C)(C)C4CC[C@@]3(C)[C@]1(C)CC2 (stereo partly shown) [Compound 8] | > 100 µM | > 100 µM | > 100 µM | > 100 µM | > 100 µM | – | – | – | – |
| CC1(C)CC[C@]2(C(=O)O)CC[C@]3(C)C(=CCC4[C@@]5(C)CC[C@H](OC(=O)CCc6cn(Cc7ccc(Cl)cc7)nn6)C(C)(C)C5CC[C@]43C)[C@@H]2C1 (stereo partly shown) [Compound 9] | > 100 µM | 8.9 ± 0.4 µM | 50.4 ± 3.5 µM | 35.4 ± 2.8 µM | 35.8 ± 4.1 µM | – | 184 °C | – | – |
| COC(=O)[C@]12CCC(C)(C)C[C@H]1C1=CCC3[C@@]4(C)CC[C@H](OC(=O)CCc5cn(Cc6ccc(Cl)cc6)nn5)C(C)(C)C4CC[C@@]3(C)[C@]1(C)CC2 (stereo partly shown) [Compound 10] | > 100 µM | > 100 µM | > 100 µM | > 100 µM | > 100 µM | – | – | activity was lost | – |
| COC(=O)[C@]12CCC(C)(C)C[C@H]1C1=CCC3[C@@]4(C)CC[C@H](OC(=O)CCc5cn(S(=O)(=O)c6ccc(C)cc6)nn5)C(C)(C)C4CC[C@@]3(C)[C@]1(C)CC2 (stereo partly shown) [Compound 12] | 76 ± 3.8 µM | 63 ± 3.8 µM | 76.3 ± 5.1 µM | > 100 µM | 22.4 ± 1.8 µM | – | – | – | – |
| CC1(C)CC[C@]2(C(=O)O)CC[C@]3(C)C(=CCC4[C@@]5(C)CC[C@H](OC(=O)CCc6cn(CSc7ccccc7)nn6)C(C)(C)C5CC[C@]43C)[C@@H]2C1 (stereo partly shown) [Compound 13] | > 100 µM | 31.6 ± 1.6 µM | 65.5 ± 4.4 µM | > 100 µM | 18.1 ± 1.6 µM | – | 170 °C | – | inactive |
| COC(=O)[C@]12CCC(C)(C)C[C@H]1C1=CCC3[C@@]4(C)CC[C@H](OC(=O)CCc5cn(CSc6ccccc6)nn5)C(C)(C)C4CC[C@@]3(C)[C@]1(C)CC2 (stereo partly shown) [Compound 14] | > 100 µM | > 100 µM | > 100 µM | > 100 µM | > 100 µM | – | 195 °C | – | – |
| COC(=O)[C@]12CCC(C)(C)C[C@H]1C1=CCC3[C@@]4(C)CC[C@H](OC(=O)CCCc5cn(S(=O)(=O)c6ccc(C)cc6)nn5)C(C)(C)C4CC[C@@]3(C)[C@]1(C)CC2 (stereo partly shown) [Compound 16] | > 100 µM | > 100 µM | > 100 µM | > 100 µM | 84.2 ± 7.5 µM | – | – | – | – |
| CC1(C)CC[C@]2(C(=O)O)CC[C@]3(C)C(=CCC4[C@@]5(C)CC[C@H](OC(=O)CCCc6cn(CSc7ccccc7)nn6)C(C)(C)C5CC[C@]43C)[C@@H]2C1 (stereo partly shown) [Compound 17] | 46.7 ± 2.4 µM | 23.7 ± 1.4 µM | 61.8 ± 3.1 µM | > 100 µM | 11.8 ± 0.9 µM | – | 198 °C | – | – |
| COC(=O)[C@]12CCC(C)(C)C[C@H]1C1=CCC3[C@@]4(C)CC[C@H](OC(=O)CCCc5cn(CSc6ccccc6)nn5)C(C)(C)C4CC[C@@]3(C)[C@]1(C)CC2 (stereo partly shown) [Compound 18] | > 100 µM | > 100 µM | > 100 µM | > 100 µM | > 100 µM | – | – | – | – |
| COc1cc([C@@H]2c3cc4c(cc3[C@@H](O[C@@H]3O[C@@H]5CO[C@@H](C)O[C@H]5[C@H](O)[C@H]3O)[C@H]3COC(=O)[C@H]23)OCO4)cc(OC)c1O [Etoposide, reference compound] | – | 0.58 ± 0.02 µM | – | 3.49 ± 0.16 µM | – | – | – | – | – |
